Results published in patent US11345708B2, “Substituted imidazo[1,2-a]imidazoles as modulators of metabotropic glutamate receptor 4 activity” (Hoffmann-La Roche Inc., priority 2017, dated 2022).

Target: T1, human mGlu4 receptor (Homo sapiens, UniProt Q14833)
T1 construct: expressed in transfected cells; host or cells: HEK-293 (monoclonal, stably transfected)
Experiment: Ca2+ mobilization in vitro assay on recombinant human mGlu4 expressed in HEK293 cells
Assay type: cell-based
Settings: HEK-293 cells stably expressing human mGlu4; L-AP4 added at EC20; Fluo-4 fluorescence; read-out: EC50 (uM) mGlu4 PAM
Protocol: Determination of EC50 Values Using a Ca2+ Mobilization In Vitro Assay on Recombinant Human mGlu4 Expressed in HEK293 Cells:
A monoclonal HEK-293 cell line stably transfected with a cDNA encoding for the human mGlu4 receptor was generated; for the work with mGlu4 Positive Allosteric Modulators (PAMs), a cell line with low receptor expression levels and low constitutive receptor activity was selected to allow the differentiation of agonistic versus PAM activity. Cells were cultured according to standard protocols (Freshney, 2000) in Dulbecco's Modified Eagle Medium with high glucose supplemented with 1 mM glutamine, 10% (vol/vol) heat-inactivated bovine calf serum, Penicillin/Streptomycin, 50 μg/ml hygromycin and 15 μg/ml blasticidin (all cell culture reagents and antibiotics from Invitrogen, Basel, Switzerland).
About 24 hrs before an experiment, 5×10^4 cells/well were seeded in poly-D-lysine coated, black/clear-bottomed 96-well plates. The cells were loaded with 2.5 μM Fluo-4 AM in loading buffer (1×HBSS, 20 mM HEPES) for 1 hr at 37° C. and washed five times with loading buffer. The cells were transferred into a Functional Drug Screening System 7000 (Hamamatsu, Paris, France), and 11 half logarithmic serial dilutions of test compound at 37° C. were added and the cells were incubated for 10-30 min. with on-line recording of fluorescence. Following this pre-incubation step, the agonist (2S)-2-amino-4-phosphonobutanoic acid (L-AP4) was added to the cells at a concentration corresponding to EC20 with on-line recording of fluorescence; in order to account for day-to-day variations in the responsiveness of cells, the EC20 of L-AP4 was determined immediately ahead of each experiment by recording of a full dose-response curve of L-AP4.
Responses were measured as peak increase in fluorescence minus basal (i.e. fluorescence without addition of L-AP4), normalized to the maximal stimulatory effect obtained with saturating concentrations of L-AP4. Graphs were plotted with the % maximal stimulatory using XLfit, a curve fitting program that iteratively plots the data using Levenburg Marquardt algorithm. The single site competition analysis equation used was y=A+((B−A)/(1+((x/C)D))), where y is the % maximal stimulatory effect, A is the minimum y, B is the maximum y, C is the EC50, x is the log 10 of the concentration of the competing compound and D is the slope of the curve (the Hill Coefficient). From these curves the EC50 (drug concentration at which 50% of the maximal receptor activation was achieved), the Hill coefficient as well as the maximal response in % of the maximal stimulatory effect obtained with saturating concentrations of L-AP4 were calculated (see Fig. 1).
A depression of the signal observed after addition of the EC20 concentration of L-AP4 was indicative of an inhibitory activity of the test compound.

T1 sequence (Q14833 33-912): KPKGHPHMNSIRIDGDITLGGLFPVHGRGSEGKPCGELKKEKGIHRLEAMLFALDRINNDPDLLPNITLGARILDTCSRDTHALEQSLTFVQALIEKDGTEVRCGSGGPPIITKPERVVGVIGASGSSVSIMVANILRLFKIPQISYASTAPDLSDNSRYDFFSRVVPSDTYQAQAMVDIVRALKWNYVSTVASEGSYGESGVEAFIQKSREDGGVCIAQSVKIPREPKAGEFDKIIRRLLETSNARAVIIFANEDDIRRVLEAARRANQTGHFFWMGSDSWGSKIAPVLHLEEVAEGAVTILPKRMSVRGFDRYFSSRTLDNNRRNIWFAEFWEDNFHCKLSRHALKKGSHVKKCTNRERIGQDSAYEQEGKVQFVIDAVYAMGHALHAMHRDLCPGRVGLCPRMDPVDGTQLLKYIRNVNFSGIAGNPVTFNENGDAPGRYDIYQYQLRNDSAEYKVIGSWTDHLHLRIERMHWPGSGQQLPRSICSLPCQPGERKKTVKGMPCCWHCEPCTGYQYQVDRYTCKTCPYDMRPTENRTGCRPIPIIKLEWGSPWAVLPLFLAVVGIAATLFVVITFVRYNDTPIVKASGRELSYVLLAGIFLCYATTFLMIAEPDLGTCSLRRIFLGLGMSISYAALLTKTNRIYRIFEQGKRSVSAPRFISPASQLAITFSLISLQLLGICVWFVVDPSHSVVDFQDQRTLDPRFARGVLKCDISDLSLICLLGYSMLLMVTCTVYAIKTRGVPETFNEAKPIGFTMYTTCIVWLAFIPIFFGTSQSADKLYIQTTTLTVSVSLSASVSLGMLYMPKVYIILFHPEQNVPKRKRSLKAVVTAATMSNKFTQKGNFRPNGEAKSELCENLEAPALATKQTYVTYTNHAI

EC50	Compound
0.453 µM	CC1C(=O)N(c2c(F)cc(C#Cc3ccccc3)cc2F)c2nccn21 (single isomer, unassigned; enantiomer 1) [Example 3, 1-(2,6-difluoro-4-(phenylethynyl)phenyl)-3-methyl-1H-imidazo[1,2-a]imidazol-2(3H)-one (enantiomer 1)]
0.758 µM	CC1C(=O)N(c2c(F)cc(C#Cc3ccccc3)cc2F)c2nccn21 (single isomer, unassigned; enantiomer 2) [Example 4, 1-(2,6-difluoro-4-(phenylethynyl)phenyl)-3-methyl-1H-imidazo[1,2-a]imidazol-2(3H)-one (enantiomer 2)]
0.178 µM	O=C1N(c2c(F)cc(C#Cc3ccccc3)cc2F)c2nccn2C12CC2 [Example 1, 3-[2,6-Difluoro-4-(2-phenylethynyl)phenyl]-2,3-dihydrospiro[[1,3]diazolo[1,2-a]imidazole-1,1′-cyclopropane]-2-one]
0.359 µM	CC1(C)C(=O)N(c2c(F)cc(C#Cc3ccccc3)cc2Cl)c2nccn21 [Example 2, 1-(2-chloro-6-fluoro-4-(phenylethynyl)phenyl)-3,3-dimethyl-1H-imidazo[1,2-a]imidazol-2(3H)-one]
0.468 µM	CC1(C)C(=O)N(c2c(F)cc(C#Cc3ccccc3)cc2F)c2nccn21 [Example 5, 1-(2,6-difluoro-4-(phenylethynyl)phenyl)-3,3-dimethyl-1H-imidazo[1,2-a]imidazol-2(3H)-one]
0.383 µM	CC(F)(F)c1ccc(-c2cc(F)c(N3C(=O)C4(CC4)n4ccnc43)c(F)c2)cc1 [Example 6, 1′-(4′-(1,1-difluoroethyl)-3,5-difluoro-[1,1′-biphenyl]-4-yl)spiro[cyclopropane-1,3′-imidazo[1,2-a]imidazol]-2′(1′H)-one]
0.541 µM	O=C(Nc1cc(F)c(N2C(=O)C3(CC3)n3ccnc32)c(F)c1)c1ccccn1 [Example 7, N-[3,5-difluoro-4-(6′-oxospiro[cyclopropane-1,5′-imidazo[1,2-a]imidazole]-7′-yl)phenyl]pyridine-2-carboxamide]
0.418 µM	CC1(C)C(=O)N(c2c(F)cc(C#Cc3ccccc3)cc2F)c2ncc(I)n21 [Example 8, 1-(2,6-difluoro-4-(phenylethynyl)phenyl)-5-iodo-3,3-dimethyl-1H-imidazo[1,2-a]imidazol-2(3H)-one]
0.245 µM	O=C1N(c2c(F)cc(C#Cc3ccccc3)cc2F)c2ncc(I)n2C12CC2 [Example 9, 3-[2,6-difluoro-4-(2-phenylethynyl)phenyl]-6-iodo-2,3-dihydrospiro[[1,3]diazolo[1,2-a]imidazole-1,1′-cyclopropane]-2-one]
0.371 µM	CC1(C)C(=O)N(c2c(F)cc(C#Cc3ccccc3)cc2Cl)c2ncc(I)n21 [Example 10, 1-(2-chloro-6-fluoro-4-(phenylethynyl)phenyl)-5-iodo-3,3-dimethyl-1H-imidazo[1,2-a]imidazol-2(3H)-one]
0.059 µM	O=C(Nc1cc(F)c(N2C(=O)C3(CC3)n3c(-c4ccccn4)cnc32)c(F)c1)c1ccccn1 [Example 11, N-[3,5-difluoro-4-[6′-oxo-3′-(2-pyridyl)spiro[cyclopropane-1,5′-imidazo[1,2-a]imidazole]-7′-yl]phenyl]pyridine-2-carboxamide]
0.076 µM	O=C1N(c2c(F)cc(C#Cc3ccccc3)cc2F)c2ncc(-c3ccccn3)n2C12CC2 [Example 12, 3-[2,6-Difluoro-4-(2-phenylethynyl)phenyl]-6-(pyridin-2-yl)-2,3-dihydrospiro[[1,3]diazolo[1,2-a]imidazole-1,1′-cyclopropane]-2-one]
0.077 µM	O=C(Nc1cc(F)c(N2C(=O)C3(CC3)n3c(-c4ccncn4)cnc32)c(F)c1)c1ccccn1 [Example 13, N-[3,5-difluoro-4-(6′-oxo-3′-pyrimidin-4-yl-spiro[cyclopropane-1,5′-imidazo[1,2-a]imidazole]-7′-yl)phenyl]pyridine-2-carboxamide]

Compound	EC50
7′-[2,6-difluoro-4-[2-(3-pyridyl)ethynyl]phenyl]-3′-(2-methylpyrazol-3-yl)spiro[cyclopropane-1,5′-imidazo[1,2-a]imidazole]-6′-one [Example 30]	0.143 µM
